Assays:
CT26 lung metastasis = assay: In vivo lung metastasis assay, CT26 colon carcinoma; parameters: species or system BALB/c mice; details: for Effect of TNF-α blockade (TNF-αR-Fc, etanercept) on protection: 100 μg etanercept every other day, FIG. 10C; for Tumor protection in IFN-γ knockout mice: IFN-γ−/− BALB/c; for Effect of NOS inhibition (L-NAME vs D-NAME) on tumor protection: WT mice, 0.2 mg L-NAME i.p., FIG. 6, 10A; for Rank order of tumor protection: dose of 50 pmoles
Protocol: (§1) In vivo lung metastasis assay. 5×10^5 CT26 cells in 0.2 ml PBS were injected i.v. into the tail vein. Glycolipid or vehicle control (0.00025% Tween 20) was injected i.p. (in 0.2 ml PBS) within one hour after tumor challenge. Mice were sacrificed 12-16 days after tumor challenge, and lungs were stained and fixed and metastases were enumerated as previously described (Park, J. M., et al., International J. of Cancer, 114:80-87 (2004)). The same protocol was used for the B16F10 cell line, except that lungs were perfused with PBS instead of ink before removal.
For CD8^+T and NK cell depletion, mice were treated with anti-CD8 (200 μg/injection), anti-asialo GM1 (25 μl/injection), or control antibodies 1 day prior to tumor challenge, the day of challenge, and 5 and 10 days following tumor challenge. CD8^+T and NK cell depletion of >90% was confirmed by flow cytometric staining for CD8 (clone 53-6.7, BD Biosciences, Rockville, Md.) and pan-NK cell marker (clone DX5, eBioscience, San Diego, Calif.) at the conclusion of the experiment. For Gr-1^+ cell depletion, mice were injected i.p. with 100, 50, or 1 μg anti-Gr-1 antibody, 16 and 40 hours after tumor challenge. CD11b^+Gr-1^high cell depletion of >99% and CD11b^+Gr-1^intermediate cell depletion of >80% by 100 μg of anti-Gr-1 antibodies, was confirmed by flow cytometric staining for CD11b (clone M1/70, eBioscience), Gr-1 (clone RB6-8C5, BD Biosciences), Ly-6C (clone AL-21, BD Biosciences) and Ly6G. (clone 1A8, BD Biosciences). Where indicated, mice received 0.2 mg L-NAME or D-NAME i.p. twice per day on the day of tumor challenge, the day after tumor challenge, and once daily for 2 weeks after tumor injection. Blockade of TNF-α was achieved by administration of 100 μg of etanercept every other day, beginning immediately following tumor challenge, per the method of Fichtner-Feigl, S., et al., Cancer Res., 68:3467-3475 (2008). For PPARγ inhibition, mice were treated 0.15 mg/ml GW9662 (200 μL i.p.) or vehicle control (0.5% DMSO in PBS) immediately following tumor challenge, and then 30 minutes prior to glycolipid administration, via the method of Coste, A., et al., J. Immunol., 180:4939-4947 (2008).

iNKT cells [1] = assay: In vitro iNKT activation (CFSE dilution, splenocytes); assay type: cell-based, mice; details: for Proliferation of iNKT cells (CFSE dilution): 3.5-day stimulation of mouse splenocytes, FIG. 3
Protocol: In vitro iNKT activation. Splenocytes were harvested from mice (n=3), and erythrocytes were depleted with ACK Lysis Buffer (Lonza, Walkersville, Md.). Cells were labeled with 0.1 μM CFSE (Invitrogen, Carlsbad, Calif.) for 15 minutes at room temperature. Labeled cells (4×10^6 cells/well of 24-well plate) were stimulated for 3.5 days with glycolipid or vehicle control. At the end of the culture, cells were harvested and stained with PBS57-loaded CD1d tetramer (NIH Tetramer Facility) and anti-CD3 (clone 145-2C11, Biolegend). The fluorescence of stained cells was measured by FACSCalibur (BD Biosciences), and data were analyzed by Flowjo (Tree Star, Inc., Ashland, Oreg.).

BALB/c splenocytes = assay: In vitro cytokine assay (ELISA); assay type: cell-based, BALB/c mice; details: 48 hours; for IFN-γ production in vitro / IL-4 production in vitro / IL-13 production in vitro: ELISA; for IFN-γ production in vitro: FIG. 7A; for IL-4 production in vitro: FIG. 7B; for IL-13 production in vitro: FIG. 7C
Protocol: In vitro cytokine assay. Splenocytes (8×10^5/well of 96 well plates) from BALB/c mice were stimulated with glycolipid or solvent control for 48 hours. Supernatants were collected, and the concentration of IFN-γ, IL-4, or IL-13 was determined by ELISA.

activated NKT cells = assay: Anergy: re-stimulation of splenocytes one month after in vivo treatment; parameters: species or system mice; details: for IFN-γ production on re-stimulation, compared to cells from vehicle-treated mice: 48 hours of re-stimulation, FIG. 13B; for Splenocyte proliferation on re-stimulation, compared to cells from vehicle-treated mice: re-stimulation with α-GalCer or β-ManCer, 3H-thymidine, 72-hour culture, FIG. 13A
Protocol: FIG. 13A is a graph showing splenocyte proliferation measured by ^3H-thymidine incorporation during the final 8 hours of a 72-hour culture after being re-stimulated in culture. Pretreatment with α-GalCer induces anergy but pretreatment with β-ManCer induces much less anergy.
FIG. 13B is a graph showing the amount of IFN-γ produced by the splenocyte culture after 48 hours of re-stimulation.
It is known that α-GalCer induces strong anergy of activated NKT cells for over a month after in vivo stimulation. […] Mice were treated with α-GalCer, β-ManCer, or vehicle, and one month later, splenocytes were re-stimulated, and the degree of activation was measured by proliferation and IFN-γ production.

[2] = system: IFN-γ, IL-4, IL-13, IL-12 (p70), and TNF-α in plasma; assay: In vivo cytokine assay (plasma, multiplex); parameters: species or system BALB/c mice; details: 0-24 hours; for IFN-γ in plasma: 50 pmoles i.p. after CT26 i.v., FIG. 8A; for IL-4 in plasma: FIG. 8C; for IL-13 in plasma: FIG. 8E
Protocol: FIGS. 8A-8E show graphs where the cytokine production induced by the glycolipid panel was tested in vivo. BALB/c mice were challenged with CT26 (5×10^5) i.v. followed by 50 pmoles of glycolipid or vehicle control i.p. at time 0. Mice were bled retroorbitally at 0, 3, 6, 12, and 24 hours, and the amount of IFN-γ (8A), TNF-α (8B), IL-4 (8C), IL-12 (p70) (8D), and IL-13 (8E) in plasma was determined. Each data point represents mean±SD of triplicates. […] Little cytokine production was detected following OCH and AH04-2 administration. β-ManCer induced very little cytokine production except for some IL-12 and TNF-α.
In vivo cytokine assay. The concentration of IFN-γ, IL-4, IL-13, IL-12 (p70), and TNF-α in plasma samples was determined by MILLIPLEX cytokine multiplex immunoassay kit (Millipore, Billerica, Mass.) using a Bio-Plex system (Bio-Rad, Hercules, Calif.) according to manufacturer's instructions.

[3] = system: 24.9.E NKT cell hybridoma; assay: Plate-bound mCD1d hybridoma stimulation assay, 24.9.E; assay type: cell-based, mouse
Protocol: (§2) Plate-bound mCD1d hybridoma stimulation assay. Protocol was modified from that of Gumperz et al. (Gumperz, J. E., et al., Immunity, 12(2):211-221 (2000)). mCD1d dimer/Ig fusion protein (BD Biosciences) was incubated with the indicated concentrations of glycolipid in pH 5 sodium acetate buffer containing 0.01% Tween20 and 45 μg/ml saposin C (provided by Nico Tjandra and Motoshi Suzuki [both from National Heart, Lung, and Blood Institute, NIH, Bethesda, Md., USA]) overnight at 37° C. The mCD1d dimers loaded with glycolipid were loaded onto 96-well Protein G Plates (Pierce, Rockford, Ill.) and incubated for 48 hours at 37° C. The plates were washed with PBS and tissue culture media to remove anything not coated on the plates. 1×10^5 24.9. E or DN32.D3 iNKT hybridoma cells were added to each well and incubated at 37° C. and 5% CO2 for 24 hours. Supernatants were collected and analyzed for IL-2 by ELISA.

[4] = system: B16F10 melanoma lung metastasis; assay: In vivo lung metastasis assay, B16F10 melanoma; details: C57BL/6 mice, dose titration; FIG. 12
Protocol: as §1

iNKT cells [5] = assay: Upregulation of activation markers CD25 and CD69 on iNKT cells; assay type: cell-based; details: mouse splenocytes stimulated overnight; data not shown
[6] = system: DN32.D3 NKT cell hybridoma; assay: Plate-bound mCD1d hybridoma stimulation assay, DN32.D3; assay type: cell-based, mouse
Protocol: as §2

CCCCCCCCCCCCCCCCCCCCCCCCCC(=O)N[C@@H](CO[C@H]1O[C@H](CO)[C@H](O)[C@H](O)[C@H]1O)[C@H](O)[C@H](O)CCCCCCCCCCCCCC [α-GalCer, α-galactosylceramide, reference compound]
Effect of TNF-α blockade (TNF-αR-Fc, etanercept) on protection (CT26 lung metastasis): no effect
Tumor protection in IFN-γ knockout mice (CT26 lung metastasis; 50 pmoles, FIG. 9A): completely failed to induce any tumor protection
Effect of NOS inhibition (L-NAME vs D-NAME) on tumor protection (CT26 lung metastasis; 50 pmoles glycolipid): no effect
Rank order of tumor protection (CT26 lung metastasis; FIG. 2D): greatest protection
Potency relative to β-ManCer (CT26 lung metastasis; results at the 5 pmole dose, FIG. 2D): about a log more potent
Proliferation of iNKT cells (CFSE dilution) (iNKT cells [1]): 44%
IFN-γ production in vitro (BALB/c splenocytes): greatest IFN-γ production
IFN-γ production on re-stimulation, compared to cells from vehicle-treated mice (activated NKT cells): severely suppressed
Splenocyte proliferation on re-stimulation, compared to cells from vehicle-treated mice (activated NKT cells): severely suppressed
IFN-γ in plasma [2]: most IFN-γ

CCCCCCCCCCCCCCCCCCCCCCCC(=O)N[C@@H](COC1OC(CO)C(O)C(O)C1O)[C@H](O)[C@H](O)CCCCC (stereo partly drawn) [OCH]
Rank order of tumor protection (CT26 lung metastasis; FIG. 2D): significantly less tumor killing
IFN-γ production in vitro (BALB/c splenocytes): lower IFN-γ level
IL-4 production in vitro (BALB/c splenocytes): higher amounts
IL-13 production in vitro (BALB/c splenocytes): higher amounts
Cytokine production in vivo (overall) ([2]; 50 pmoles i.p.): Much less cytokine production

CCCCC/C=C\C/C=C\CCCCCCCCCC(=O)N[C@@H](CO[C@H]1O[C@H](CO)[C@H](O)[C@H](O)[C@H]1O)[C@H](O)[C@H](O)CCCCCCCCCCCCCC [C20:2, reference compound]
Tumor protection in IFN-γ knockout mice (CT26 lung metastasis; 50 pmoles, FIG. 9A): completely failed to induce any tumor protection
Effect of NOS inhibition (L-NAME vs D-NAME) on tumor protection (CT26 lung metastasis; 50 pmoles glycolipid): no effect
Rank order of tumor protection (CT26 lung metastasis; FIG. 2D): similarly protective
IFN-γ production in vitro (BALB/c splenocytes): lower IFN-γ level
IL-4 production in vitro (BALB/c splenocytes): higher amounts
IL-13 production in vitro (BALB/c splenocytes): higher amounts
IL-4 in plasma ([2]; 50 pmoles i.p.): increased
IL-13 in plasma ([2]; 50 pmoles i.p.): increased

CCCCCCCCCCCCCCCCCCCCCCCCCC(=O)N[C@@H](COC1OC(CO)C(O)C(O)C1O)[C@H](O)[C@H](O)CCCCCCCCCCCCCC (stereo partly drawn) [β-ManCer, 2-hexacosanoylamino-1-O-β-mannopyranosyl-D-ribo-1,3,4-octadecanetriol]
Effect of TNF-α blockade (TNF-αR-Fc, etanercept) on protection (CT26 lung metastasis): completely reversed the protection
Effect of PPARγ inhibition with GW 9662 on induced protection (CT26 lung metastasis; 0.15 mg/ml GW9662 200 μL i.p., 50 pmoles glycolipid, FIG. 2C): no effect
Potency of tumor protection relative to α-ManCer and β-GalCer (CT26 lung metastasis; CT26 lung metastasis, 50 vs 5,000 pmoles): 100 fold
Fewer lung nodules compared to vehicle control mice (CT26 lung metastasis; IFN-γ knockout mice, 50 pmoles, p=0.0079, FIG. 9A): 50%
Protection in IFN-γ−/− mice when NOS was inhibited (CT26 lung metastasis; IFN-γ−/− mice, L-NAME, FIG. 10B): completely lost
Tumor protection in Jα18KO mice (lack only iNKT cells) (CT26 lung metastasis; Jα18KO BALB/c mice, FIG. 2B): All protection was lost
Protection against CT26 lung metastasis (CT26 lung metastasis; WT BALB/c, glycolipid i.p. within one hour after tumor challenge, β-ManCer 50 pmoles, FIG. 2A): strong protection
Effect of NOS inhibition (L-NAME vs D-NAME) on tumor protection (CT26 lung metastasis; 50 pmoles glycolipid): significantly inhibited protection
Effect of depletion of Gr-1+ cells on tumor protection (CT26 lung metastasis; anti-Gr-1 antibodies, FIG. 10D): no effect
Rank order of tumor protection (CT26 lung metastasis; FIG. 2D): similarly protective
Increase in IL-2 production over unloaded mCD1d ([3]; 24.9.E): 25 fold
IL-2 production, glycolipid-loaded mCD1d dimers ([3]; 24.9.E, 24 hours, no APCs, FIG. 5): able to induce IL-2 production
IL-2 production, soluble glycolipid in the absence of CD1d ([3]; 24.9.E, FIG. 5): failed to induce IL-2 production above background
IL-2 production, difference (less) versus α-GalCer ([3]; stated for the 24.9.E and DN32.D3 hybridomas together): 10- to 50 fold
Tumor protection against B16F10 melanoma lung metastasis, relative to α-GalCer [4]: at least as potent
Inhibition of iNKT proliferation by CD1d-blocking antibody (iNKT cells [1]; 3.5-day stimulation): 86%
Proliferation of iNKT cells (CFSE dilution) (iNKT cells [1]): 40%
Proliferation of iNKT cells with CD1d-blocking antibody (iNKT cells [1]; 3.5-day stimulation, CD1d-blocking antibody): 5.4%
Cytokine production in vitro (overall) (BALB/c splenocytes; IFN-γ, IL-4, IL-13): least cytokine production
Cytokines at concentrations less than 30 nM (BALB/c splenocytes; glycolipid less than 30 nM): no cytokines detected
Upregulation of CD25 and CD69 on iNKT cells (iNKT cells [5]): induced upregulation
Increase in IL-2 production over unloaded mCD1d ([6]; DN32.D3): over 500 fold
IL-2 production, glycolipid-loaded mCD1d dimers ([6]; DN32.D3, 24 hours, no APCs, FIG. 5): able to induce IL-2 production
IL-2 production, soluble glycolipid in the absence of CD1d ([6]; DN32.D3, FIG. 5): failed to induce IL-2 production above background
IFN-γ production on re-stimulation, compared to cells from vehicle-treated mice (activated NKT cells): slight reduction
Splenocyte proliferation on re-stimulation, compared to cells from vehicle-treated mice (activated NKT cells): slight reduction
IFN-γ in plasma [2]: no substantial increase
IL-12 in plasma ([2]; 50 pmoles i.p.): only a modest increase
TNF-α in plasma ([2]; 50 pmoles i.p.): only a modest increase
IL-4 in plasma ([2]; 50 pmoles i.p.): no substantial increase
IL-13 in plasma ([2]; 50 pmoles i.p.): no substantial increase
